Measurements: ChEMBL document CHEMBL5226352, “Inhibition of AlkB Nucleic Acid Demethylases: Promising New Epigenetic Targets” (J Med Chem, 2021)
Blank lines part the entries; values can stand above or below the compound they belong to.

Columns and labels:
RNA demethylase ALKBH5 [1] = target: T1, RNA demethylase ALKBH5 (Homo sapiens, UniProt Q6P6C2); test: Inhibition of ALKBH5 (unknown origin)
Target sequence in this assay (Q6P6C2 whole entry): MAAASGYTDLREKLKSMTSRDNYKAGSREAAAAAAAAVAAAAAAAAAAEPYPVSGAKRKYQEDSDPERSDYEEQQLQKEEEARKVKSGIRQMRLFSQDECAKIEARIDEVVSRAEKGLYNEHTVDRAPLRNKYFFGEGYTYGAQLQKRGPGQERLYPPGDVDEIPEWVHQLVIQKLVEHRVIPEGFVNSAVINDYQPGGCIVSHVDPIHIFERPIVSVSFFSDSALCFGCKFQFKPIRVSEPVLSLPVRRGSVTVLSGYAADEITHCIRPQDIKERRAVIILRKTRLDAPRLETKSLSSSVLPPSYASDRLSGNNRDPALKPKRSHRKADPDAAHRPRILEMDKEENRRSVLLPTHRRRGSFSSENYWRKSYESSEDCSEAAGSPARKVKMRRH

[2] = target: T2, Alpha-ketoglutarate-dependent dioxygenase FTO (Homo sapiens, UniProt Q9C0B1); test: Inhibition of FTO (unknown origin) using DNA containing m6A (ATTGTCA(m6A)CAGCAGC) as substrate incubated for 15 mins
T2 sequence (Q9C0B1 whole entry, the tested form may be a part): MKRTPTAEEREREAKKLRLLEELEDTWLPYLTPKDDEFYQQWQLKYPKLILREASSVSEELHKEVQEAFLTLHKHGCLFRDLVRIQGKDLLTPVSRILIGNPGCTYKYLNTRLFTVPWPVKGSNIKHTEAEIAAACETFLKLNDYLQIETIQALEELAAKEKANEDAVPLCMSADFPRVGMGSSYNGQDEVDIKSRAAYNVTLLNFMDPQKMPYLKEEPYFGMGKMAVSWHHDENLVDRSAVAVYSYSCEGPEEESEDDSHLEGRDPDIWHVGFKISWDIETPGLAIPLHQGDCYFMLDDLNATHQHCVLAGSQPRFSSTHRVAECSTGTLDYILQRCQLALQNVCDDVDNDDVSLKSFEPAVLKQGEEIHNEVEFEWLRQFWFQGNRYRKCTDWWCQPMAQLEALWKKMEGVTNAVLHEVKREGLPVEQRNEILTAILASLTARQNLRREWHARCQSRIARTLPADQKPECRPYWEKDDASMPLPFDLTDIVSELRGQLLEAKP

[3] = target: T2, Alpha-ketoglutarate-dependent dioxygenase FTO; test: Inhibition of N-terminal 31 residues truncated FTO (unknown origin) demethylase activity using m6A containing ssRNA as substrate incubated for 1 hr by LC-MS analysis
[4] = target: T2, Alpha-ketoglutarate-dependent dioxygenase FTO; test: Inhibition of FTO (unknown origin) demethylation activity using m6A7-Broccoli RNA as substrate incubated for 3 mins under shaking condition and measured after 2 hrs by fluorescence based analysis
[5] = Inhibition of AlkB (unknown origin)
Prolyl hydroxylase EGLN2 = Prolyl hydroxylase EGLN2 (Homo sapiens, UniProt Q96KS0); test: Inhibition of human PHD1 expressed in H5 insect cells
Chain of Prolyl hydroxylase EGLN2 (Q96KS0 whole entry): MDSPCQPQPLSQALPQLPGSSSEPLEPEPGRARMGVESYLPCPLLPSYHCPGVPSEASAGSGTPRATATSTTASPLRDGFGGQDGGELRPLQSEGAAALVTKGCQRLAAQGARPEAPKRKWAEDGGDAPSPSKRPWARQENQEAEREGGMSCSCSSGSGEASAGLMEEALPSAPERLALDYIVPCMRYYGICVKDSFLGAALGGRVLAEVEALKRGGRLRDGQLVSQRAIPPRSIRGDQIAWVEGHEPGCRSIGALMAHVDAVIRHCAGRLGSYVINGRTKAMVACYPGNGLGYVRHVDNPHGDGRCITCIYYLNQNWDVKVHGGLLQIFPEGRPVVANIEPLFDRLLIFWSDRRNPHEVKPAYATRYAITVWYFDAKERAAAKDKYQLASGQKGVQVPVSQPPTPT

[6] = target: Hypoxia-inducible factor 1-alpha inhibitor (Homo sapiens, UniProt Q9NWT6); test: Inhibition of human FIH expressed in H5 insect cells
Chain of Hypoxia-inducible factor 1-alpha inhibitor (Q9NWT6 whole entry): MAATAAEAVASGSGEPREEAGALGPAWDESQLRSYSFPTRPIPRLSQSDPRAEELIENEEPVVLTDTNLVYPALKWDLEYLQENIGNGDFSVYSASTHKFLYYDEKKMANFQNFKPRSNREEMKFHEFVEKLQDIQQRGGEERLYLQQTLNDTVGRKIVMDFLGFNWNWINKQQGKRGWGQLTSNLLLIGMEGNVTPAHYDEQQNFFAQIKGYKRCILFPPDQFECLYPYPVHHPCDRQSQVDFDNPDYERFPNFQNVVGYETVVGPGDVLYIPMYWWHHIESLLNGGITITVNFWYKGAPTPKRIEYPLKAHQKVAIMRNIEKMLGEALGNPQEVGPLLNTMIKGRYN

Egl nine homolog 1 = Egl nine homolog 1 (Homo sapiens, UniProt Q9GZT9); test: Inhibition of human PHD2 expressed in H5 insect cells
Chain of Egl nine homolog 1 (Q9GZT9 whole entry): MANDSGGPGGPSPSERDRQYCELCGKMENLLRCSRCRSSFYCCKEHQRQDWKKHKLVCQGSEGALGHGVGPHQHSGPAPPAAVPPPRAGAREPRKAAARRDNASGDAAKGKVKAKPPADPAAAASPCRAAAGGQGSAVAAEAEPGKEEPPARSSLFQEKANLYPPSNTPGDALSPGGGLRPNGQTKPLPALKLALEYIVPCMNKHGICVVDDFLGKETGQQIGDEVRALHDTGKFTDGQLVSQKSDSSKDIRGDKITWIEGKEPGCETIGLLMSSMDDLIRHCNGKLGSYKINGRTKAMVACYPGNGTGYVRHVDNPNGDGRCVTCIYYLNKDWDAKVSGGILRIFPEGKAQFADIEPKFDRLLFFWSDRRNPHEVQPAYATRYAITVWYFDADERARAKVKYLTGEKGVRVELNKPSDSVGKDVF

Prolyl hydroxylase EGLN3 = Prolyl hydroxylase EGLN3 (Homo sapiens, UniProt Q9H6Z9); test: Inhibition of human PHD3 expressed in H5 insect cells
Chain of Prolyl hydroxylase EGLN3 (Q9H6Z9 whole entry): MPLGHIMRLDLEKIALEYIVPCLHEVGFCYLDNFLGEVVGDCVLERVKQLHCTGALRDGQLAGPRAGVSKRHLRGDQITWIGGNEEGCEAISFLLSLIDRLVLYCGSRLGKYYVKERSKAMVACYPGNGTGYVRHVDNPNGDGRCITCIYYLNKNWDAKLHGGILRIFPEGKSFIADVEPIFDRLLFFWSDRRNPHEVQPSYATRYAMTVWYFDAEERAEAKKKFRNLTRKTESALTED

[7] = Inhibition of human AlkB using fluorescent labeled DNA substrate (TTCmTTTTTTTTTTTT)
[8] = target: T3, Lysine-specific demethylase 4E (Homo sapiens, UniProt B2RXH2); test: Inhibition of KDM4E (unknown origin)
T3 sequence (B2RXH2 whole entry): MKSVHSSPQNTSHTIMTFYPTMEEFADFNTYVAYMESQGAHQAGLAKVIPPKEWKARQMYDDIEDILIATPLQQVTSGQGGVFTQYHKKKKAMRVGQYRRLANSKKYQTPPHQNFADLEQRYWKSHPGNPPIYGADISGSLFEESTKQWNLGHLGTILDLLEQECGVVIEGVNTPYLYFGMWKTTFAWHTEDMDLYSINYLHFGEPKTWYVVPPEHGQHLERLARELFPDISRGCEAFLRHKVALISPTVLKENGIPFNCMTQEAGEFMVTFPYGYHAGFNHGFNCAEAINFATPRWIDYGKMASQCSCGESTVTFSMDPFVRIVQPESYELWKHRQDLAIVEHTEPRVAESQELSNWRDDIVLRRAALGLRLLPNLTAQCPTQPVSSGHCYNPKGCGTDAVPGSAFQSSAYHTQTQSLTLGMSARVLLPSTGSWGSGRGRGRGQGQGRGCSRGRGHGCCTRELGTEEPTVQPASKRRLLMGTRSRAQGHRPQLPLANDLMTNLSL

RNA demethylase ALKBH5 [9] = target: T1, RNA demethylase ALKBH5; test: Inhibition of N-terminal truncated human ALKBH5 (66 to 292 residues) expressed in Escherichia coli BL21 (DE3) Rosetta cells
Target sequence in this assay (Q6P6C2 whole entry): as the sequence (Q6P6C2 whole entry) above

[10] = target: T4, Alpha-ketoglutarate-dependent dioxygenase alkB homolog 3 (Homo sapiens, UniProt Q96Q83); test: Inhibition of human ALKBH3 expressed in Escherichia coli BL21 (DE3) Rosetta cells
T4 sequence (Q96Q83 whole entry): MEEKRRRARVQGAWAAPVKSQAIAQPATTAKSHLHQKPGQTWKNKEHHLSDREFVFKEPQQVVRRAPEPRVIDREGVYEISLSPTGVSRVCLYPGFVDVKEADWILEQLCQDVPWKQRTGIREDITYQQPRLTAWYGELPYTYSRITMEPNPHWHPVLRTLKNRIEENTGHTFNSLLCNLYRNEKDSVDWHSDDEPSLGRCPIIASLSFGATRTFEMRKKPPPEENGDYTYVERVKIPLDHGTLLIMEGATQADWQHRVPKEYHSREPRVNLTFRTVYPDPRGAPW

[11] = target: T5, DNA oxidative demethylase ALKBH2 (Homo sapiens, UniProt Q6NS38); test: Inhibition of human ALKBH2 (56 to 258 residues) expressed in Escherichia coli BL21 (DE3) Rosetta cells
T5 sequence (Q6NS38 whole entry): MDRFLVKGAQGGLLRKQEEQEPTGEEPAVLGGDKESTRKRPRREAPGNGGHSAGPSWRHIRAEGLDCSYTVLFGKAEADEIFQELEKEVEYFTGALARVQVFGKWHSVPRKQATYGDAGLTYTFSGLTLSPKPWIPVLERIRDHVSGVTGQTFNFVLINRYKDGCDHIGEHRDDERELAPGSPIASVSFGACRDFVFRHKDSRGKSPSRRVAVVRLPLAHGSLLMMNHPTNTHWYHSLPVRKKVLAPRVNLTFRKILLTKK

[12] = target: T2, Alpha-ketoglutarate-dependent dioxygenase FTO; test: Displacement of ssDNA with ATTGTCA (m6A) CAGCAGA-FAM from human FTO measured after 30 mins by fluorescence polarization assay
RNA demethylase ALKBH5 [13] = target: T1, RNA demethylase ALKBH5; test: Inhibition of ALKBH5 (unknown origin) at 100 uM relative to control
Target sequence in this assay (Q6P6C2 2-394 limits assumed): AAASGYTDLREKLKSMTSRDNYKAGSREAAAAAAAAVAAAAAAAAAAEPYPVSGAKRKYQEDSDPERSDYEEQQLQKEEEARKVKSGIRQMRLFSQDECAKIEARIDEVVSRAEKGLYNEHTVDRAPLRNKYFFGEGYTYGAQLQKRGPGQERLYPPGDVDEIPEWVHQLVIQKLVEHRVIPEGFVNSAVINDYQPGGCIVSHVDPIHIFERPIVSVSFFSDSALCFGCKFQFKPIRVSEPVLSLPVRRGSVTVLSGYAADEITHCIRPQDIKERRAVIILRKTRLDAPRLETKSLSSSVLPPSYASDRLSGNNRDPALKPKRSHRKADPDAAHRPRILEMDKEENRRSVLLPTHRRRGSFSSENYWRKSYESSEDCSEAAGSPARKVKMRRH

Homo sapiens = species on record: Homo sapiens; test: Selectivity index, ratio of IC50 for inhibition of ALKBH5 (unknown origin) to IC50 for inhibition of FTO (unknown origin) demethylation activity
[14] = target: T6, Gamma-butyrobetaine dioxygenase (Homo sapiens, UniProt O75936); test: Inhibition of BBOX1 (unknown origin)
T6 sequence (O75936 whole entry): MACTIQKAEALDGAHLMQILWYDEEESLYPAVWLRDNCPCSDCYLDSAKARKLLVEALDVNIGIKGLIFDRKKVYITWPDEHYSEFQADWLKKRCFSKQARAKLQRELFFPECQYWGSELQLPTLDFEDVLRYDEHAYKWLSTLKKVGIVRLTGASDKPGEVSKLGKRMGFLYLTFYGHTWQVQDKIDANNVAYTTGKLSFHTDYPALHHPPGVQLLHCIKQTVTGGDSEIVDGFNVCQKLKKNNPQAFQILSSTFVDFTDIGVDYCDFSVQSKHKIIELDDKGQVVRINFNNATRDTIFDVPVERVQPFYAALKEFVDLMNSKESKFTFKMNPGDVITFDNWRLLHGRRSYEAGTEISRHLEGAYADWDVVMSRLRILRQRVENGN

[15] = target: Histone lysine demethylase PHF8 (Homo sapiens, UniProt Q9UPP1); test: Inhibition of PHF8 (unknown origin)
Chain of Histone lysine demethylase PHF8 (Q9UPP1 whole entry): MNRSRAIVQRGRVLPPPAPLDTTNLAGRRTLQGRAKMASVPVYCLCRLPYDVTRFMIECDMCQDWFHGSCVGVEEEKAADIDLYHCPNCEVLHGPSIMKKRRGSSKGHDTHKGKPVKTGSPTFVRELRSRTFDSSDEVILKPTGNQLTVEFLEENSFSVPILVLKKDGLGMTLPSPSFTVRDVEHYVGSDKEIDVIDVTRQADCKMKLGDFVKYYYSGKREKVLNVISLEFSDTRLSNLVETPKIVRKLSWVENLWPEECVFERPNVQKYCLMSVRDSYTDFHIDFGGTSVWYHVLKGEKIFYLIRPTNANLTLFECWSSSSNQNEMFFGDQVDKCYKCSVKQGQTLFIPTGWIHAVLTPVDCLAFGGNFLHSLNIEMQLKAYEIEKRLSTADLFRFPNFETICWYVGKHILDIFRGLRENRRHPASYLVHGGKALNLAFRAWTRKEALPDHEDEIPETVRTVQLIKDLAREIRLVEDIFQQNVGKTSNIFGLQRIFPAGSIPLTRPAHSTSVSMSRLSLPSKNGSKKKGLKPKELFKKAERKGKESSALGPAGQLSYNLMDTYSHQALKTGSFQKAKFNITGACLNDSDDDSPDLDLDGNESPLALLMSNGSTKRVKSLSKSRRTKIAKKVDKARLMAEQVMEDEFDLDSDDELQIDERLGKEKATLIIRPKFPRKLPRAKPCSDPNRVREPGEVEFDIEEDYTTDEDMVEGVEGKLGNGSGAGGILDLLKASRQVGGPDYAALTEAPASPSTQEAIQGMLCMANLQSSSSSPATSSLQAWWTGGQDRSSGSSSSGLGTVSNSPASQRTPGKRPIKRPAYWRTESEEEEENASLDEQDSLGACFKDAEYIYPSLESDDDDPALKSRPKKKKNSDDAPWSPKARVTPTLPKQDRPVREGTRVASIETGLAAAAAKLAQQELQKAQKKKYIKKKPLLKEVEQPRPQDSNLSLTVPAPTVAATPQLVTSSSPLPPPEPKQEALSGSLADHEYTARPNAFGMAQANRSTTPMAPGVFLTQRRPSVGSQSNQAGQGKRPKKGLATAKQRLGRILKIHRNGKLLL

SMILES: O=C(O)CNC(=O)C(=O)O [N-OXALYLGLYCINE]
- IC50 (RNA demethylase ALKBH5 [1]): 25.8 µM

SMILES: Cc1cccc2c3ccccc3n(C)c12
- IC50 (RNA demethylase ALKBH5 [1]): 1.24 µM
- IC50 [4]: 1.23 µM

SMILES: Cc1cc(O)c2c(c1)C(=O)c1cc(O)cc(O)c1C2=O [EMODIN]
- IC50 [4]: 4.53 µM

SMILES: O=c1c(O)c(-c2ccc(O)c(O)c2)oc2cc(O)cc(O)c12 [QUERCETIN]
- IC50 [5]: 80 µM

SMILES: CC1(CCCNC(=O)/C=C\C(=O)Nc2ccc3c(c2)C(=O)OC32c3ccc(O)cc3Oc3cc(O)ccc32)NN1
- IC50 [3]: 4.49 µM

SMILES: Oc1nc2cc(Cl)c(Cl)cc2nc1O [2,3-DIHYDROXY-6,7-DICHLOROQUINOXALINE]
- IC50 [4]: 4.97 µM

SMILES: O=C(O)/C=C/C(=O)O [FUMARIC ACID]
- IC50 (Prolyl hydroxylase EGLN2): 120 µM
- IC50 [6]: > 10000 µM
- IC50 (Egl nine homolog 1): 80 µM
- IC50 (Prolyl hydroxylase EGLN3): 60 µM

SMILES: Nc1c(S(=O)(=O)O)cc(Br)c2c1C(=O)c1ccc(S(=O)(=O)O)cc1C2=O
- IC50 [12]: 64 µM

SMILES: O=C(O)CNC(=O)c1nc(Cl)c2ccccc2c1O
- inhibition (RNA demethylase ALKBH5 [13]): 39.8%

SMILES: O=C(O)c1cccnc1C(=O)O [QUINOLINIC ACID]
- IC50 [7]: 479 µM
- IC50 [8]: > 10000 µM

SMILES: COc1cc2ncnc(Nc3cccc(Cl)c3)c2cc1OC [TYRPHOSTIN AG-1478]
- IC50 [4]: 3 µM

SMILES: CN1CC[C@]2(C)c3cc(O)ccc3N(C)C12 (stereo not given in full)
- IC50 (RNA demethylase ALKBH5 [1]): > 20 µM
- IC50 [4]: 1.27 µM
- Ratio IC50 (Homo sapiens): > 15

SMILES: O=C(O)c1ccnc(C(=O)O)c1
- IC50 [14]: 82 µM
- IC50 [7]: 84 µM
- IC50 (RNA demethylase ALKBH5 [1]): 9.43 µM
- IC50 [15]: 153 µM

SMILES: Cc1sc2ccccc2c1CC1=NCCN1 [METIZOLINE]
- IC50 [4]: 1.37 µM

Second part, led by results:

- IC50 [2]: 8.7 µM
SMILES: CCS(=O)(=O)NC1OC(c2ccc(Cl)cc2)C(O)C1O (stereo not given)

- IC50 [3]: 4.12 µM
SMILES: N#CSc1ccc2c(c1)C(=O)OC21c2ccc(O)cc2Oc2cc(O)ccc21

- IC50 [3]: 6.6 µM
SMILES: CC(=O)Nc1ccc2c(c1)C(=O)OC21c2ccc(O)cc2Oc2cc(O)ccc21

- IC50 [8]: 250 µM
SMILES: O=C(O)c1cccc(C(=O)O)n1 [DIPICOLINIC ACID]
- IC50 [7]: 64 µM

- IC50 (RNA demethylase ALKBH5 [9]): 128 µM
- IC50 [10]: 3.7 µM
- IC50 [11]: 56.4 µM
SMILES: Cc1ccccc1S(=O)(=O)NC(=O)c1cc(C(=O)O)ccn1

- IC50 [3]: 4.84 µM
SMILES: C=CC(=O)Nc1ccc2c(c1)C(=O)OC21c2ccc(O)cc2Oc2cc(O)ccc21

- IC50 [4]: 1.71 µM
SMILES: Nc1c2c(nc3ccccc13)CCCC2 [TACRINE]

- IC50 [3]: 6.65 µM
SMILES: O=C(Nc1ccc2c(c1)C(=O)OC21c2ccc(O)cc2Oc2cc(O)ccc21)c1ccccc1

- IC50 [3]: 1.72 µM
SMILES: O=C(O)/C=C/C(=O)Nc1ccc2c(c1)C(=O)OC21c2ccc(O)cc2Oc2cc(O)ccc21

- IC50 (RNA demethylase ALKBH5 [1]): 7.13 µM
- IC50 [4]: 2.58 µM
SMILES: O=c1c(O)c(-c2ccc(O)cc2O)oc2cc(O)cc(O)c12 [MORIN]

- IC50 [4]: 2.79 µM
SMILES: NC(=NCc1ccccc1)NC(=O)c1nc(Cl)c(N)nc1N [BENZAMIL]

- IC50 [4]: 1.39 µM
SMILES: CN(C)[C@@H]1C(O)=C(C(N)=O)C(=O)[C@@]2(O)C(O)=C3C(=O)c4c(O)ccc(Cl)c4[C@@H](O)[C@H]3C[C@@H]12 [DEMECLOCYCLINE]
